Results reported in patent US20160235778A1, “COMPOSITIONS CONTAINING PUFA, URIDINE AND CHOLINE AND METHODS OF USE THEREOF” (MASSACHUSETTS INSTITUTE OF TECHNOLOGY, priority 2014, published 2016).

Tests used:
[1] = system: PC-12 cells; assay: 14C-choline incorporation into phospholipids in PC-12 cells; type: cell-based
Experimental: PC-12 cells were maintained in Dulbecco's modified Eagle's medium (DMEM)+10% fetal bovine serum (FBS). For experiments, cells were grown in quintuplicate collagen-coated 35 millimeter (mm) dishes. Cells were incubated for 18 hours (hr) in serum-free DMEM containing 28 μM choline+/−5 micromolar (μM) of DHA, oleic acid, or palmitic acid. Cells were then labeled for 2.5 hr with 0.5 microcurie (μCi)/ml ^14C-choline in serum-free DMEM containing 10-micromolar (μM) choline.
Cells were homogenized in 100 volumes of ice-cold deionized water using a tissue degrader (Polytron PT 10-35, Kinematica AG, Switzerland); 1 ml of aliquots were then mixed with 3 ml of chloroform+methanol mixture (2:1 v/v) and vortexed vigorously for 30 seconds. After cooling for 1 h on ice, the mixture was mixed sequentially with 3 ml of chloroform+methanol mixture (2:1 v/v) and 1 ml of ice-cold deionized water. […] Total phosphorus was determined by comparison with standard curves by using KH2PO4 run with each assay. […] Absorbance was measured spectrophotometrically at 820 nm. Phospholipid mass was determined by multiplying the phosphorus content by 25.
To further characterize the stimulation of phospholipid synthesis by omega-3 fatty acids, PC-12 cells were pre-treated with different doses of DHA and exposed to labeled choline as described in Example 1, then incorporation of ^14C-label into phospholipids was measured. […]

[2] = system: brain phospholipids; assay: Brain phospholipid levels in pups of treated pregnant and nursing mothers; type: in vivo; details: rat pups
Experimental: (§1) In another study, pregnant rats were allowed to consume ad libitum, for 10 days before parturition and 20 days while nursing, either a choline-containing control diet or this diet supplemented with uridine as UMP; half of each group also received DHA or its diluent daily, by gavage. Pups were then sacrificed and brain slices were examined to determine numbers of hippocampal dendritic spines.
Pregnant and nursing rats were administered DHA and/or uridine as described in Example 9. At 20 days post-birth, rats were sacrificed and brain samples were obtained and assayed for phospholipids. Administration of DHA alone increased brain PC, PI, PE, and sphingomyelin (SM) per cell (DNA) by 36, 166, 38, and 78%, respectively. UMP markedly amplified the effects of DHA to 66, 210, 68, and 99% of control, respectively (Table 8). These increases were greater than those observed in adult animals. Similar results were obtained when normalizing to protein (Table 9). Thus, administration of DHA and/or uridine to pregnant and nursing mothers is able to increase phospholipid levels in the offspring.

[3] = system: hippocampal dendritic spines; assay: Hippocampal dendritic spine numbers in pups of treated pregnant and nursing mothers; type: in vivo; details: rat pups, mothers treated 10 days before parturition and 20 days while nursing
From the text: as §1

[4] = postnatal day 20, normalized to DNA
[5] = postnatal day 20, normalized to protein

CCC=CCC=CCC=CCC=CCC=CCC=CCCC(=O)O [DHA, 4,7,10,13,16,19-docosahexaenoic acid]
Phosphatidylcholine (PC) synthesis (incorporation of 14C label into PC) ([1]; 18 h pre-incubation with 5 μM fatty acid, FIG. 1): significantly increased | synthesis of phospholipids (incorporation of 14C-label) ([1]; different doses of DHA, dose-dependent, FIG. 2): increased synthesis of phospholipids | PC, percent increase over control [2, 4]: 36% | PE, percent increase over control [2, 4]: 38% | PI, percent increase over control [2, 4]: 166% | SM, percent increase over control [2, 4]: 78% | Total Phospholipids, percent increase over control [2, 4]: 30% | PC, percent increase over control [2, 5]: 23% | PE, percent increase over control [2, 5]: 24% | PI, percent increase over control [2, 5]: 141% | SM, percent increase over control [2, 5]: 59% | Total Phospholipids, percent increase over control [2, 5]: 16% | Increase over control (%) [3]: 32% | Number of spines [3]: 70
